Measurements from article PMC5906710, “Simvastatin Enhances Activity and Trafficking of α7 Nicotinic Acetylcholine Receptor in Hippocampal Neurons Through PKC and CaMKII Signaling Pathways” (Frontiers in Pharmacology, 2018).

Target: T1, α7 nicotinic acetylcholine receptor (α7nAChR) (Mus musculus, UniProt P49582)
T1 construct: gene Chrna7; native receptor in hippocampal CA1 pyramidal cells (slices)
Assay: whole-cell patch-clamp of ACh-evoked currents in mouse hippocampal slices, dose-response

T1 sequence (P49582 23-502): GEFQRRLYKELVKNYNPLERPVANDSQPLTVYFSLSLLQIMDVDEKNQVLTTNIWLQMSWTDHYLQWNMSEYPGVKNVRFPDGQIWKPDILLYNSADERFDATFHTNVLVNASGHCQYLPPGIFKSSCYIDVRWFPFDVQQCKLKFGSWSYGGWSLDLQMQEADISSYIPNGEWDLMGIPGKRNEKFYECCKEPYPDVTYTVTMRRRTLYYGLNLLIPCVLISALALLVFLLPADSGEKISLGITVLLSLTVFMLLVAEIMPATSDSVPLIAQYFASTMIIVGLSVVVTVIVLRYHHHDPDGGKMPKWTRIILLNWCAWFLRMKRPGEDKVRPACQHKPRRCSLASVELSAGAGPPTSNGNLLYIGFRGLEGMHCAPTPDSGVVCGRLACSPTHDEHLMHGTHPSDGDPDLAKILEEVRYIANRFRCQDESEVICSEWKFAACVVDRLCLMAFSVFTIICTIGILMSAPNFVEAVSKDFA

CC(=O)OCC[N+](C)(C)C [ACh, acetylcholine] was tested, and the EC50 was 117.1 ± 0.94 µM.
